Assay results: the supplement of paper PMC10307832

Legend:
Assay in all cases: relative viability (nuclei count vs DMSO), 5 days (fraction); higher = more cells survive
XMD13-2 + Foretinib = compound: C1CC1C(=O)NC2=NNC3=C2C=CC(=C3)C4=CC(=CC=C4)C(=O)NC5CC5 [XMD13-2] + COc1cc2c(Oc3ccc(NC(=O)C4(C(=O)Nc5ccc(F)cc5)CC4)cc3F)ccnc2cc1OCCCN1CCOCC1 [Foretinib] (partner 0.25 µM)
In short: (§1)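 Lung cancer cell lines were seeded in 1536-well plates and dosed by pin tool the next day, with either a single drug or a fixed anchor-drug dose combined with five library-drug doses (not always all listed) spaced in √10 steps. Five days later, one step fixed the cells and stained their nuclei (final 0.05% Triton X-100, 1% formaldehyde, 1 ug/ml Hoechst), and nuclei were counted on 4× images. Relative viability is the nuclei count in treated wells divided by the count in vehicle wells, and each value is the median of duplicate plates.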

ALW-II-49-7 + Lapatinib = compound: Cc1ccc(C(=O)Nc2cccc(C(F)(F)F)c2)cc1Nc1cncc(C(N)=O)c1 [ALW-II-49-7] + CS(=O)(=O)CCNCc1ccc(-c2ccc3ncnc(Nc4ccc(OCc5cccc(F)c5)c(Cl)c4)c3c2)o1 [Lapatinib] (partner 2 µM)
In short: as §1

XMD13-2 + Phenformin = compound: C1CC1C(=O)NC2=NNC3=C2C=CC(=C3)C4=CC(=CC=C4)C(=O)NC5CC5 [XMD13-2] + N=C(N)NC(=N)NCCc1ccccc1 [Phenformin] (partner 250 µM)
In short: as §1

ALW-II-49-7 + Crizotinib = compound: Cc1ccc(C(=O)Nc2cccc(C(F)(F)F)c2)cc1Nc1cncc(C(N)=O)c1 [ALW-II-49-7] + C[C@@H](Oc1cc(-c2cnn(C3CCNCC3)c2)cnc1N)c1c(Cl)ccc(F)c1Cl [Crizotinib] (partner 1 µM)
In short: as §1

Row | Cell Line | relative viability (XMD13-2 + Foretinib; first compound 0.05 µM) | relative viability (XMD13-2 + Foretinib; first compound 0.1581 µM) | relative viability (XMD13-2 + Foretinib; first compound 0.5 µM) | relative viability (XMD13-2 + Foretinib; first compound 1.581 µM) | relative viability (XMD13-2 + Foretinib; first compound 5 µM) | relative viability (ALW-II-49-7 + Lapatinib; first compound 0.08 µM) | relative viability (ALW-II-49-7 + Lapatinib; first compound 0.253 µM) | relative viability (ALW-II-49-7 + Lapatinib; first compound 0.8 µM) | relative viability (ALW-II-49-7 + Lapatinib; first compound 2.53 µM) | relative viability (ALW-II-49-7 + Lapatinib; first compound 8 µM) | relative viability (XMD13-2 + Phenformin; first compound 0.05 µM) | relative viability (XMD13-2 + Phenformin; first compound 0.1581 µM) | relative viability (XMD13-2 + Phenformin; first compound 0.5 µM) | relative viability (XMD13-2 + Phenformin; first compound 1.581 µM) | relative viability (XMD13-2 + Phenformin; first compound 5 µM) | relative viability (ALW-II-49-7 + Crizotinib; first compound 0.08 µM) | relative viability (ALW-II-49-7 + Crizotinib; first compound 0.253 µM) | relative viability (ALW-II-49-7 + Crizotinib; first compound 0.8 µM) | relative viability (ALW-II-49-7 + Crizotinib; first compound 2.53 µM) | relative viability (ALW-II-49-7 + Crizotinib; first compound 8 µM)
1 | NCI-H2085 | 0.971 | 0.943 | 0.963 | 0.857 | 0.923 | 0.892 | 0.858 | 0.718 | 0.776 | 0.707 | 0.825 | 0.715 | 0.759 | 0.661 | 0.802 | 0.762 | 0.889 | 0.898 | 0.905 | 0.938
2 | NCI-H2087 | 1.4 | 1.27 | 1.22 | 1.08 | 0.727 | 0.976 | 1.07 | 0.839 | 1.15 | 1.01 | 0.479 | 0.487 | 0.515 | 0.498 | 0.362 | 1.07 | 0.843 | 0.957 | 0.758 | 0.851
3 | HCC-366 | 1.02 | 0.915 | 0.952 | 0.905 | 0.896 | 1.21 | 1.32 | 1 | 1.09 | 1.13 | 0.705 | 0.577 | 0.633 | 0.569 | 0.611 | 0.777 | 0.592 | 0.382 | 0.682 | 0.609
4 | NCI-H2126 | 1.16 | 1.18 | 1.16 | 1.29 | 1.1 | 0.603 | 0.826 | 0.765 | 0.737 | 0.752 | 0.531 | 0.474 | 0.522 | 0.522 | 0.553 | 0.857 | 0.976 | 1.06 | 0.998 | 0.987
